Measurements taken from patent US20250092081A1, “USE OF GLYCOSYLTRASNFERASE INHIBITORS FOR TREATING CANCER” (CALIFORNIA INSTITUTE OF TECHNOLOGY, priority 2020, published 2025).

Legend:
MraY = MraY (Escherichia coli (strain K12), UniProt P0A6W3); assay: MraY assay; type: biochemical; settings: relative to FR-900493 (1)
C. difficile spores = assay: Spore viability testing; type: cell-based; settings: x2 MIC, 24 hours, CFU on taurocholate agar
Vero cells = assay: Cytotoxicity MTT assay, Vero cells; type: cell-based, monkey
sheep blood = assay: Hemolysis of sheep blood; type: cell-based; settings: Ovis aries
Water solubility = type: physicochemical; settings: 11 relative to 10
C. difficile = assay: Antibacterial activity (FIG. 4), C. difficile; type: cell-based
[1] = Cytotoxicity MTT assay, L12210; type: cell-based; settings: mouse, L12210 cells
Protocol: (§1) Selected molecules were tested for cytotoxicity (IC50) in cancer and healthy cells via a MTT colorimetric assay.
(§2) Each cell was cultured in recommended medium by ATCC, and the IC50 data were obtained with each cell line.

[2] = Cytotoxicity MTT assay, KB; type: cell-based; settings: human, KB cells
Protocol: as §1, §2

[3] = Cytotoxicity MTT assay, LoVo; type: cell-based; settings: human, LoVo cells
Protocol: as §1, §2

[4] = Cytotoxicity MTT assay, SK-OV-3; type: cell-based; settings: human, SK-OV-3 cells
Protocol: as §1, §2

[5] = Cytotoxicity MTT assay, MDA-MB-435S; type: cell-based; settings: human, MDA-MB-435S cells
Protocol: as §1, §2

[6] = Cytotoxicity MTT assay, AsPc-1; type: cell-based; settings: human, AsPc-1 cells
Protocol: as §1, §2

[7] = Cytotoxicity MTT assay, Panc-1; type: cell-based; settings: human, Panc-1 cells
Protocol: as §1, §2

[8] = Cytotoxicity MTT assay, HPAF-II; type: cell-based; settings: human, HPAF-II cells
Protocol: as §1, §2

[9] = Cytotoxicity MTT assay, HCT 116; type: cell-based; settings: human, HCT 116 cells
Protocol: as §1, §2

Panc-1 cells = assay: Boyden chamber migration assay, Panc-1; type: cell-based; settings: FIG. 7
AsPc-1 cells = assay: Scratch (wound healing) assay, AsPc-1; type: cell-based; settings: FIG. 9
[10] = tested on: AsPc-1 (pancreatic cancer) cells; assay: Synergistic assay (checkerboard) on AsPc-1 cells; type: cell-based; settings: for IC50 A / IC50 B (drug alone): AsPc-1 cells
Protocol: Synergistic Assay. The synergistic or antagonistic activities of 11 with other cancer drugs on AsPc-1 (pancreatic cancer) cells were assessed in vitro via micro dilution broth checkerboard technique previously reported. The FIC index was calculated according to the following equation. ΣFIC=FICA+FICB=CA/MICA+CB/MICB where MICA and MICB are MIC of drugs A and B, CA and CB are the concentrations of drugs A and B used in combination. In these interaction studies, ΣFIC of less than 0.5 represents synergistic activity.
These experiments were performed in the same manner as those of Example 8.

MDA-MB-231 cells [11] = assay: Animal model of triple negative breast cancer (MDA-MB-231 implanted); type: in vivo; settings: mice, MDA-MB-231, 10 mg/kg/day, FIG. 10
Protocol: An animal model of triple negative breast cancer was generated by implantation of MDA-MB-231 cells into mice. […] A second group of mice were treated with paclitaxel at 15 mg/kg.

[12] = tested on: patient-derived cell line (BCI-12); assay: Animal model of Her2+ breast cancer (BCI-12 implanted); type: in vivo; settings: mice
Protocol: An animal model of Her2+ breast cancer was generated by implantation of cells of a patient-derived cell line (BCI-12) into mice. Said mice were treated with compound 11, with the therapeutic monoclonal antibody transtuzumab (TzMAb), or a combination of compound 11 and transtuzumab.

MDA-MB-231 cells [13] = assay: Expression of tumor markers in MDA-MB-231 cells; type: cell-based; settings: 48 hours of exposure, FIG. 12
From the text: It should be appreciated that MDA-MB-231 is a high DPAGT1 expressing, triple negative cell line. […] Erb2 (HER2), Erb3 (HER3), and Erb4 (HER4) are elevated.

WecA = WecA (Escherichia coli (strain K12), UniProt P0AC78); assay: WecA assay (Table 1); settings: relative to FR-900493 (1)
Chain of WecA (P0AC78 whole entry, looked up, species assumed): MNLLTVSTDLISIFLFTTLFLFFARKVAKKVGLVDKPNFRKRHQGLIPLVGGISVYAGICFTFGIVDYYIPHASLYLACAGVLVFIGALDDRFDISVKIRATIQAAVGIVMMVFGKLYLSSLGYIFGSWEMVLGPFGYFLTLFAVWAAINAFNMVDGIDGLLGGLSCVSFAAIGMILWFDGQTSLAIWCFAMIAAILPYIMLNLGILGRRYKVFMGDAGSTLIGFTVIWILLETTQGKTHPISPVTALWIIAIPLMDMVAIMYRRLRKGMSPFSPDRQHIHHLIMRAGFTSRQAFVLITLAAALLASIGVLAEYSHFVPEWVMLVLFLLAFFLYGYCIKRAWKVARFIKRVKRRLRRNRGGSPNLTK

Chain of MraY (P0A6W3 whole entry, looked up, species assumed): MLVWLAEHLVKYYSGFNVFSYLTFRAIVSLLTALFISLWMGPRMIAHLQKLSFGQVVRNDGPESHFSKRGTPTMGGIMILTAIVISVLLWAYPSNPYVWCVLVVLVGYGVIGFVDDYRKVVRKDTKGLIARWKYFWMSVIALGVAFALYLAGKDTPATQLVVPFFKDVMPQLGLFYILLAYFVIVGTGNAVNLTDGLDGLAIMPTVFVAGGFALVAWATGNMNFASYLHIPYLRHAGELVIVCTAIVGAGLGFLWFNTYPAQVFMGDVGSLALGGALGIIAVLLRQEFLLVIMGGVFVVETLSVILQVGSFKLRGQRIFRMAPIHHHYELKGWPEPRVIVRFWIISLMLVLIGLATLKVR

NC[C@H]1O[C@@H](O[C@H]([C@H]2O[C@@H](n3ccc(=O)[nH]c3=O)[C@H](O)[C@@H]2O)[C@H](NCCCC(=O)NCc2ccc(N3CCC(Oc4ccc(C(F)(F)F)cc4)CC3)cc2)C(N)=O)[C@H](O)[C@@H]1O [Compound 11]
MraY inhibitory activity, more significant than 1 (MraY): > 300 times
Viability of C. difficile spores (C. difficile spores): caused loss of viability
cytotoxic effects on healthy, non-cancerous Vero cells (Vero cells): little cytotoxic effects
IC50 (sheep blood): 206000 nM
water solubility greater than 10 (Water solubility): 200 times
antibacterial activity against C. difficile (C. difficile): displayed antibacterial activity
IC50 [1]: > 100000 nM
IC50 [2]: 7090 nM
IC50 [3]: 220 nM
IC50 [4]: 2850 nM
IC50 [5]: 7090 nM
IC50 [6]: 950 nM
IC50 [7]: < 98 nM
IC50 [8]: < 98 nM
IC50 [9]: 3540 nM
Panc-1 migratory cells (Panc-1 cells): fewer Panc-1 migratory cells than Gemcitabine, Taxol, and Tunicamycin
AsPc-1 cell migration, scratch assay (AsPc-1 cells): less AsPc-1 cell migration than Gemcitabine
effect of combinations of 11 and Taxol ([10]; AsPc-1, all five combinations, FIC < 0.5): synergistic effect
effect of combination of 11 and Gemcitabine ([10]; AsPc-1, both combinations): synergistic effect
IC50 A / IC50 B (drug alone) ([10]; Table 5): 982 nM
IC50 A / IC50 B (drug alone) ([10]; Table 6): 980 nM
AsPc-1 cells dead/alive ([10]; Compound 11 0.0488281 μM + Gemcitabine 0.024414 μM): alive
AsPc-1 cells dead/alive ([10]; Compound 11 0.0488281 μM + Gemcitabine 0.048828 μM): alive
AsPc-1 cells dead/alive ([10]; Compound 11 0.0488281 μM + Gemcitabine 0.097656 μM): dead
AsPc-1 cells dead/alive ([10]; Compound 11 0.0488281 μM + Gemcitabine 0.195313 μM): dead
AsPc-1 cells dead/alive ([10]; Compound 11 0.0488281 μM + Gemcitabine 0.390625 μM): dead
AsPc-1 cells dead/alive ([10]; Compound 11 0.0976563 μM + Gemcitabine 0.024414 μM): alive
AsPc-1 cells dead/alive ([10]; Compound 11 0.0976563 μM + Gemcitabine 0.048828 μM): alive
AsPc-1 cells dead/alive ([10]; Compound 11 0.0976563 μM + Gemcitabine 0.097656 μM): dead
AsPc-1 cells dead/alive ([10]; Compound 11 0.0976563 μM + Gemcitabine 0.195313 μM): dead
AsPc-1 cells dead/alive ([10]; Compound 11 0.0976563 μM + Gemcitabine 0.390625 μM): dead
AsPc-1 cells dead/alive ([10]; Compound 11 0.1953125 μM + Gemcitabine 0.024414 μM): alive
AsPc-1 cells dead/alive ([10]; Compound 11 0.1953125 μM + Gemcitabine 0.048828 μM): alive
AsPc-1 cells dead/alive ([10]; Compound 11 0.1953125 μM + Gemcitabine 0.097656 μM): dead
AsPc-1 cells dead/alive ([10]; Compound 11 0.1953125 μM + Gemcitabine 0.195313 μM): dead
AsPc-1 cells dead/alive ([10]; Compound 11 0.1953125 μM + Gemcitabine 0.390625 μM): dead
AsPc-1 cells dead/alive ([10]; Compound 11 0.390625 μM + Gemcitabine 0.024414 μM): alive
AsPc-1 cells dead/alive ([10]; Compound 11 0.390625 μM + Gemcitabine 0.048828 μM): alive
AsPc-1 cells dead/alive ([10]; Compound 11 0.390625 μM + Gemcitabine 0.097656 μM): dead
AsPc-1 cells dead/alive ([10]; Compound 11 0.390625 μM + Gemcitabine 0.195313 μM): dead
AsPc-1 cells dead/alive ([10]; Compound 11 0.390625 μM + Gemcitabine 0.390625 μM): dead
AsPc-1 cells dead/alive ([10]; Compound 11 0.78125 μM + Gemcitabine 0.024414 μM): alive
AsPc-1 cells dead/alive ([10]; Compound 11 0.78125 μM + Gemcitabine 0.048828 μM): alive
AsPc-1 cells dead/alive ([10]; Compound 11 0.78125 μM + Gemcitabine 0.097656 μM): dead
AsPc-1 cells dead/alive ([10]; Compound 11 0.78125 μM + Gemcitabine 0.195313 μM): dead
AsPc-1 cells dead/alive ([10]; Compound 11 0.78125 μM + Gemcitabine 0.390625 μM): dead
effect compared with paclitaxel (15 mg/kg) (MDA-MB-231 cells [11]): at least equivalent to palctitaxel
effect compared with transtuzumab ([12]; BCI-12, FIG. 11): at least equivalent to transtuzumab
effect of combination of compound 11 and transtuzumab ([12]; BCI-12, about days 20 to 30 of treatment): Improved effects
expression of DPAGT1 (RPKM Expression Value) (MDA-MB-231 cells [13]): sharply reduced
expression of EGFR (HER1) (MDA-MB-231 cells [13]): sharply reduced
expression of Erb2 (HER2) (MDA-MB-231 cells [13]): elevated
expression of Erb3 (HER3) (MDA-MB-231 cells [13]): elevated
expression of Erb4 (HER4) (MDA-MB-231 cells [13]): elevated
WecA inhibitory activity, more significant than 1 (WecA): about 15 fold
